According to US8633166B2, “Methicillin-resistant Staphylococcus aureus active metabolites” (priority 2009, dated 2014):
Converted amounts (≈) assume the structure as drawn. Like-named read-outs stand apart in the source and are kept apart here.

Key:
Assay in all cases: In vitro MIC, broth microdilution (CLSI)
Format in all cases: cell-based
[1] = test system: Enterococcus faecalis; conditions: read-out: MIC (converted)
Experimental: (§1) All test articles were dissolved in DMSO. Stock solutions were prepared at 40-fold the highest concentration in the test plate. The final concentration of DMSO in the test system was 2.5%.
(§2) The medium employed for the MIC assay was Mueller Hinton II Broth (MHB II-Becton Dickinson, #212322, Lot #9044411) for most of the organisms. MHB II was supplemented with 2% lysed horse blood (Cleveland Scientific Lot #22299-1) to accommodate the growth of Streptococcus pneumoniae, Streptococcus pyogenes and Streptococcus agalactiae. The media were prepared at 102.5% the normal weight to offset the dilution created by the addition of 5 μL drug solution to each well of the microdilution panels.
(§3) The MIC assay method followed the procedure described by the Clinical and Laboratory Standards Institute (see Clinical and Laboratory Standards Institute. Methods for Dilution Antimicrobial, Susceptibility Tests for Bacteria That Grow Aerobically; Approved Standard—Eighth Edition. CLSI document M07-A8 [ISBN 1-56238-689-1]. Clinical and Laboratory, Standards Institute, 940 West Valley Road, Suite 1400, Wayne, Pa. 19087-1898 USA, 2009) and employed automated liquid handlers to conduct serial dilutions and liquid transfers. Automated liquid handlers included the Multidrop 384 (Labsystems, Helsinki, Finland), Biomek 2000 and Multimek 96 (Beckman Coulter, Fullerton Calif.).
(§4) The wells of Columns 2-12 of standard 96-well microdilution plates (Falcon 3918) were filled with 150 μL of DMSO on the Multidrop 384. The drugs (300 μL) were dispensed into Column 1 of the appropriate row in these plates. These would become the mother plates from which the test plates (daughter plates) were prepared. The Biomek 2000 completed serial transfers through Column 11 in the mother plates. The wells of Column 12 contained no drug and were the organism growth control wells in the daughter plates. The daughter plates were loaded with 185 μL of the appropriate test media (described above) using the Multidrop 384. The daughter plates were prepared on the Multimek 96 instrument which transferred 5 μL of drug solution from each well of a mother plate to each corresponding well of each daughter plate in a single step. Therefore, the test agents were maintained in solution in 100% DMSO up until the point of being added to the final test medium.
(§5) Standardized inoculum of each organism was prepared per CLSI methods (See Clinical and Laboratory Standards Institute. Performance Standards for Antimicrobial Susceptibility Testing; Nineteenth Informational Supplement. CLSI document M100-S19 [ISBN 1-56238-690-5]. Clinical and Laboratory Standards Institute, 940 West Valley Road, Suite 1400, Wayne, Pa. 19087-1898 USA, 2009.). Suspensions were prepared in MHB to equal the turbidity of a 0.5 McFarland standard. The suspensions were diluted 1:9 in broth appropriate to the organism. The inoculum for each organism was dispensed into sterile reservoirs divided by width (Beckman Coulter), and the Biomek 2000 was used to inoculate the plates. Daughter plates were placed on the Biomek 2000 work surface reversed so that inoculation took place from low to high drug concentration. The Biomek 2000 delivered 10 μL of standardized inoculum into each well. This yielded a final cell concentration in the daughter plates of approximately 5×10^5 colony-forming-units/mL. Thus, the wells of the daughter plates ultimately contained 185 μL of broth, 5 μL of drug solution, and 10 μL of bacterial inoculum. The final concentration of DMSO in the assay plate was 2.5%.
(§6) Plates were stacked 3 high, covered with a lid on the top plate, placed in plastic bags, and incubated at 35° C. for approximately 18 hours for most of the isolates. The Streptococcus plates were read after 20 hours of incubation. The microplates were viewed from the bottom using a plate viewer. […] The MIC was read and recorded as the lowest concentration of drug that inhibited visible growth of the organism.

[2] = test system: Enterococcus faecium; conditions: read-out: MIC
Experimental: as §1, §2, §3, §4, §5, §6

[3] = test system: Staphylococcus aureus; conditions: Staphylococcus aureus, read-out: MIC (converted)
Experimental: as §1, §2, §3, §4, §5, §6

[4] = test system: Staphylococcus epidermidis; conditions: Staphylococcus epidermidis, read-out: MIC
Experimental: as §1, §2, §3, §4, §5, §6

[5] = test system: Streptococcus agalactiae; conditions: Streptococcus agalactiae, MHB II with 2% lysed horse blood, read-out: MIC
Experimental: as §1, §2, §3, §4, §5, §6

[6] = test system: Streptococcus pneumoniae; conditions: Streptococcus pneumoniae, MHB II with 2% lysed horse blood, read-out: MIC (converted)
Experimental: as §1, §2, §3, §4, §5, §6

[7] = test system: Streptococcus pyogenes; conditions: MHB II with 2% lysed horse blood
Experimental: as §1, §2, §3, §4, §5, §6

MIC ([1]; Enterococcus faecalis, ATCC29212, MMX 101, CLSI QC, ATCC 29212): 2 µg/mL (≈ 5.93 µM)
MIC ([1]; Enterococcus faecalis, MMX 742, VSE, CHP): 2 µg/mL (≈ 5.93 µM)
MIC ([1]; Enterococcus faecalis, MMX 3199, VSE, UCLA): 2 µg/mL (≈ 5.93 µM)
MIC ([1]; Enterococcus faecalis, MMX 3896, VSE, Mt. Sinai): 1 µg/mL (≈ 2.96 µM)
MIC ([1]; MMX 3821, VRE, Mt. Sinai): 2 µg/mL (≈ 5.93 µM)
MIC ([1]; MMX 4131, VRE, CHP): 2 µg/mL (≈ 5.93 µM)
MIC ([1]; MMX 4160, VRE, UCLA): 2 µg/mL (≈ 5.93 µM)
MIC ([2]; Enterococcus faecium, MMX 0799, VSE, CHP): 2 µg/mL (≈ 5.93 µM)
MIC ([2]; Enterococcus faecium, MMX 0845, VSE, UCLA): 2 µg/mL (≈ 5.93 µM)
MIC ([2]; Enterococcus faecium, MMX 1259, VSE, Mt. Sinai): 4 µg/mL (≈ 11.9 µM)
MIC ([2]; MMX 1238, VRE, Mt. Sinai): 2 µg/mL (≈ 5.93 µM)
MIC ([2]; MMX 4024, VRE, CHP): 4 µg/mL (≈ 11.9 µM)
MIC ([2]; MMX 4048, VRE, UCLA): 4 µg/mL (≈ 11.9 µM)
MIC ([3]; ATCC29213, MMX 100, CLSI QC, ATCC 29213): 4 µg/mL (≈ 11.9 µM)
MIC ([3]; MRSA, MMX 758, MRSA, CHP): 4 µg/mL (≈ 11.9 µM)
MIC ([3]; MRSA, MMX 2055, MRSA, UCLA): 4 µg/mL (≈ 11.9 µM)
MIC ([3]; MRSA, MMX 3894, MRSA, Mt. Sinai): 4 µg/mL (≈ 11.9 µM)
MIC ([3]; MSSA, MMX 753, MSSA, CHP): 4 µg/mL (≈ 11.9 µM)
MIC ([3]; MSSA, MMX 2063, MSSA, UCLA): 2 µg/mL (≈ 5.93 µM)
MIC ([3]; MSSA, MMX 3856, MSSA, Mt. Sinai): 4 µg/mL (≈ 11.9 µM)
MIC ([4]; MMX 835, MSSE, UCLA): 1 µg/mL (≈ 2.96 µM)
MIC ([4]; MMX 3703, MSSE, CHP): 1 µg/mL (≈ 2.96 µM)
MIC ([4]; MMX 3763, MSSE, Mt. Sinai): 2 µg/mL (≈ 5.93 µM)
MIC ([4]; MRSE, MMX 762, MRSE, CHP): 1 µg/mL (≈ 2.96 µM)
MIC ([4]; MRSE, MMX 826, MRSE, UCLA): 1 µg/mL (≈ 2.96 µM)
MIC ([4]; MRSE, MMX 3752, MRSE, Mt. Sinai): 1 µg/mL (≈ 2.96 µM)
MIC ([5]; MMX 3743, Mt. Sinai): 1 µg/mL (≈ 2.96 µM)
MIC ([5]; MMX 4093, UCLA): 1 µg/mL (≈ 2.96 µM)
MIC ([5]; MMX 4106, CHP): 2 µg/mL (≈ 5.93 µM)
MIC ([6]; ATCC49619, MMX 1195, CLSI QC, ATCC 49619): 1 µg/mL (≈ 2.96 µM)
MIC ([6]; MMX 866, PSSP, CHP): 1 µg/mL (≈ 2.96 µM)
MIC ([6]; MMX 3130, PSSP, UCLA): 1 µg/mL (≈ 2.96 µM)
MIC ([6]; MMX 3937, PSSP, Mt. Sinai): 1 µg/mL (≈ 2.96 µM)
MIC ([6]; PRSP, MMX 748, PRSP, CHP): 0.5 µg/mL (≈ 1.48 µM)
MIC ([6]; PRSP, MMX 3160, PRSP, UCLA): 1 µg/mL (≈ 2.96 µM)
MIC ([6]; PRSP, MMX 3953, PRSP, Mt. Sinai): 0.5 µg/mL (≈ 1.48 µM)
MIC ([7]; MMX 2572, UCLA): 1 µg/mL (≈ 2.96 µM)
MIC ([7]; MMX 3928, Mt. Sinai): 1 µg/mL (≈ 2.96 µM)
MIC ([7]; Streptococcus pyogenes, MMX 718, CHP, read-out: MIC): 1 µg/mL (≈ 2.96 µM)
Compound: CC(=O)NC[C@H]1CN(c2ccc(N3CCOCC3)c(F)c2)C(=O)O1 [Linezolid, reference compound]
